# From publication PMC7261172, “Peptides containing the PCNA interacting motif APIM bind to the β-clamp and inhibit bacterial growth and mutagenesis” (Nucleic Acids Research, 2020)
# How the values were obtained:
# S.epidermidis (MRSE) = assay type: cell-based, Staphylococcus epidermidis; details: 24 h
# Description: (§1) Briefly, bacterial suspension in Mueller-Hinton Broth was adjusted to 0.5 McFarland and diluted to 5 × 10^5 CFU/ml. The suspension (0.1 ml) was seeded in polypropylene microtiter plates (Greiner), 5 × 10^4 CFU/well. APIM-peptides were added as 10% of the total volume. Initial inoculums were quantified by seeding on agar for verification of the estimated CFU/mL. After 24 hours (h) incubation at 37°C, the microtiter plates were inspected for visible growth.
# E. coli MG1655 [1] = experiment: Rif^R mutagenicity assay, added cell penetrating peptides; assay type: cell-based, Escherichia coli; details: spontaneous; for Mutation frequency, added peptides: E. coli MG1655, cell penetrating peptide 20 μM, average ± SEM, RWLVK n = 11, RFSLK n = 4, RWLK n = 7, R11 n = 5, control 10.5 ± 2.2
# Description: (§2) The rifampicin resistance (Rif^R) mutagenicity assay was performed as described in ([50]) with some modifications. Briefly, E. coli BL21 expressing peptide variants were induced with (IPTG) (1 mM) at OD600 = 0.3–0.4 and cultured at 37°C, for 2 h before harvested. Bacteria from large culture volumes (up to 50 ml) were plated in order to obtain ∼100 Rif^R colonies per dish. The anti-mutagenic effect of cell penetrating APIM-peptides in E. coli MG1655 was done by adding 20 μM peptide at OD600 = 0.01, and the cells were cultured for 30 min. Next, the cells were pelleted and washed with PBS before UV-irradiated in (50 μl) PBS (2 mJ UVC/cm^2), re-suspended in 2.5 ml LB and cultured in 37°C for 2 h before plating on LB plates with and without Rif (100 μg/ml). The number of Rif^R colonies/ total CFU was determined after 1 and 2 days, respectively. Significance was calculated by using a two-tailed, paired, students t-test. Gentamicin resistance (Gen^R) was examined using a gentamicin sensitive clinical isolate of S. epidermidis. […] The cultures were grown in a shaking incubator (37°C) and were re-inoculated (1:100) every 24 h in fresh TSB and supplements. The cultures were plated on blood agar plates with and without gentamicin (10 mg/l) every day for 4 days, and the frequency of Gen^R colonies was determined by calculating the number of Gen^R colonies/total CFU.
# [2] = system: gentamicin sensitive clinical isolate of S. epidermidis; experiment: Gentamicin resistance (Gen^R) mutation frequency assay; assay type: cell-based, Staphylococcus epidermidis; details: peptide 3 μM, 4 days, daily re-inoculation 1:100 in TSB, n≥ 4; Figure 4B
# Description: as §2
# E. coli MG1655 [3] = assay type: cell-based, Escherichia coli; details: Mueller-Hinton Broth, 5 × 10^5 CFU/ml, 24 h, 37°C; average of ≥3 independent biological experiments
# Description: as §1
# E. coli BL21 = assay type: cell-based, Escherichia coli; details: Mueller-Hinton Broth, 5 × 10^5 CFU/ml, 24 h, 37°C; average of ≥3 independent biological experiments
# Description: as §1
# MRSA 43484 = experiment: Murine skin wound infection model; details: topical
# Description: The experimental procedure is modified from a previously described skin infection model in mice ([52]). A total of 32 Balb/C female mice (18–22 g, Taconic, Denmark) were used for the experiment. The mice were treated orally with analgesia, 45 μl Nurofen®junior (Novartis 20 mg/ml ∼30 mg/kg), 30–60 min before the experiment. The mice were anesthetized with 0.15 ml diluted Zoletil mix (2 ml Zoletil mix + 5.2 ml sterile saline + 2.8 ml Torbugesix 1:100) before the fur was removed on a 2 × 3 cm area of the back with an electric shaver and a razor. At last, a skin lesion was made on each mouse with a dermal curette (Miltex 335710). A total of 10 μl inoculum containing 10^7 CFU MRSA 43484 (in saline) was added to a 1 cm^2 area of the skin lesion of each mouse. One group of animals (six mice) were sacrificed 1 day after inoculation, before any treatment was given, to quantify the inoculum. The remaining mice were given topical treatment twice a day (9 a.m and 3 p.m) for 3 days; APIM-peptide (RFSLK, Innovagen SE, 12.8 mg/ml in 1% methyl cellulose gel containing 10% glycerol) or Fusidic acid 2% ointment (LeoPharma). A volume of 50 μl was used for each treatment, spread out on the skin lesion. […] The treated animals and the control group were sacrificed on day 4, one day after the last treatment. […]
# E.coli β-clamp = molecular target: T1, E.coli β-clamp (Escherichia coli, UniProt P0A988); experiment: Microscale thermophoresis (MST) β-clamp binding; details: cell penetrating peptides, MST buffer with 2% fetal bovine serum, initial in vitro binding experiments, bounds given
# T1 construct: made in house
# T1 sequence (P0A988 whole entry): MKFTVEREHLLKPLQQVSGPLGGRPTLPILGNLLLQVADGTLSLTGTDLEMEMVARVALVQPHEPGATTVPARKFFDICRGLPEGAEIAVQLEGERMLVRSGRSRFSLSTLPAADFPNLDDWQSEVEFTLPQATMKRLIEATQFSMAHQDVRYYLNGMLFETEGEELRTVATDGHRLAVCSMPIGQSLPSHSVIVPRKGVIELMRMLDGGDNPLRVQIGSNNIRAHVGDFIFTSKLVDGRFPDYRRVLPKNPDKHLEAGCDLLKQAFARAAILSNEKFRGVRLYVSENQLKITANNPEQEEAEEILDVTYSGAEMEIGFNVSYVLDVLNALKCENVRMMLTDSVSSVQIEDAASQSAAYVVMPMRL
# Description: Purified E.coli β-clamp ([49]) was labeled using the RED-Maleimide Labelling Kit (NanoTemper Technologies, GmbH) according to the manufacturer's instructions applying a concentration of 20 μM protein at room temperature. The ligands, cell penetrating APIM-peptides, were dissolved and diluted in supplemented Microscale thermophoresis (MST) buffer (50 mM Tris–HCl pH 7.5, 150 mM NaCl, 10 mM MgCl2) with 2% fetal bovine serum and incubated for 10 min in room temperature. Series of 1:1 dilutions (16×), producing ligand concentrations ranging from 500 μM to 15 nM, were made. Each ligand solution was further diluted 1:1 with fluorescent labeled β-clamp (diluted in MST buffer, 3 nM) and incubated for 10 min. Fluorescence was measured for each protein-ligand sample using a Monolith NT.115 instrument (20% MST power and 100% LED power) and Monolith NT Standard Treated Capillaries (both NanoTemper Technologies, GmbH). To calculate the KD’s, fluorescence signals were plotted and analyzed using the supplemented software (NT Analysis software version 1.5.41 and MO.affinity analysis version 2.2.4, NanoTemper Technologies). Denaturation with SD-buffer (4% sodium dodecyl sulphate and 40 mM DTT) and re-measurement of total fluorescence confirmed that the observed change in fluorescence was due to ligand binding event.
# [4] = system: clinical isolates of multidrug-resistant S. epidermidis; experiment: Inhibition of growth (OD600) of clinical isolates; assay type: cell-based, Staphylococcus epidermidis; details: most sensitive clinical isolate (isolate 1); same molar concentration as the full-length RWLVK-peptide; Figure 1B
# Description: Growth experiments were performed in Luria-Bertani broth (LB) media, Tryptic soy broth (TSB) or LB agar at 37°C, antibiotic selections were performed using the following concentrations: kanamycin 30 μg/ml, chloramphenicol 34 μg/ml and rifampicin 100 μg/ml.
# E. coli MG1655 cells = experiment: Replication assay (flow cytometry of DNA content, Rif/Cpx run-out); assay type: cell-based, Escherichia coli; details: up to 15 μM peptide (above MIC), then Rif and Cpx run-out
# Description: E. coli MG1655 cells were grown at 37°C in glucose-CAA medium (AB minimal medium ([46]) supplemented with 10 μg/ml thiamine, 0.2% glucose and 0.5% casamino acids) for several generations to ensure balanced growth. At an OD600 = 0.15, the cells were added 2, 4 or 6 μM RWLVK* peptide or 2, 4, 6 or 15 μM R11 peptide. Growth was continued for 2–5 min. After peptide treatment, cells were either harvested directly or treated with rifampicin (Rif) (300 μg/ml) and cephalexin (Cpx) (10 μg/ml) for the time equivalent of three to four generations before harvesting. Both directly harvested and Rif and Cpx treated cells were re-suspended in TE buffer (10 mM Tris–HCl, pH 8.0, 1 mM EDTA, pH 8.0) and fixed in 70% ethanol. Fluorescein isothiocyanate (FITC, Sigma-Aldrich) ([47]) was used for protein staining (representing mass), and Hoechst 33258 was used for DNA staining (Sigma-Aldrich) ([48]). Flow cytometry was performed with an LSR-II flow cytometer equipped with a 488 nm argon-ion laser and a 355 nm krypton laser (BD Biosciences), and the results were analyzed using FlowJo software (Tree Star, Inc.). Rif and Cpx inhibit the initiation of replication and cell division, respectively. Cells cannot initiate a new round of replication after these drugs are added but can complete ongoing rounds of replication (without dividing). […]
Compound,Minimal Inhibitory Concentration (MIC) S.epidermidis (MRSE) (S.epidermidis (MRSE)),"Mutation frequency, added peptides (E. coli MG1655 [1])","Mutation frequency (Gen^R/10^8 CFU) compared to the control, peptide alone [2]",Minimal Inhibitory Concentration (MIC) E. coli MG1655 (E. coli MG1655 [3]),Minimal Inhibitory Concentration (MIC) E. coli BL21 (E. coli BL21),"Bacterial load in the infected lesions (CFU/skin lesion) on day 4 (MRSA 43484; 50 μl twice a day for 3 days, 12.8 mg/ml (3.5 mM) in 1% methyl cellulose gel with 10% glycerol, compared to controls, Figure 5)","Toxicity of the APIM-peptide gel (MRSA 43484; twice a day for 3 days, mice)",Kd (E.coli β-clamp; read-out: KD for the β-clamp (MST)),"Inhibition of growth (OD600), % of untreated parallel [4]",Inhibition of DNA replication (E. coli MG1655 cells),"Effect of added cell penetrating peptide on the mutation frequency (E. coli MG1655 [1]; E. coli MG1655, 20 μM)",KD for the β-clamp (MST) (E.coli β-clamp)
Ac-MDRFSLKWKKKRKIRRRRRRRRRRR-NH2 [RFSLK],3 µM,4.1 ± 1.6 * Rif^R/10^8 CFU,did not change the mutation frequency,7.5 µM,4 µM,significantly reduced the bacterial load,no toxicity,< 50 µM,,,,
"N=C(N)NCCC[C@H](NC(=O)[C@H](CCCNC(=N)N)NC(=O)[C@H](CCCNC(=N)N)NC(=O)[C@H](CCCNC(=N)N)NC(=O)[C@H](CCCNC(=N)N)NC(=O)[C@H](CCCNC(=N)N)NC(=O)[C@H](CCCNC(=N)N)NC(=O)[C@H](CCCNC(=N)N)NC(=O)[C@H](CCCNC(=N)N)NC(=O)[C@H](CCCNC(=N)N)NC(=O)[C@@H](N)CCCNC(=N)N)C(N)=O [R11, reference compound]",12 µM,7.2 ± 3.9 Rif^R/10^8 CFU,,14.5 µM,11 µM,,,,no effect,did not have any effect,did not affect the mutation frequency,no binding was detected
